Experimental data reported in US9422297B2, “Tricyclic compounds having cytostatic and/or cytotoxic activity and methods of use thereof” (Duquesne University of the Holy Ghost, priority 2007, dated 2016).
pIC50: −log10 of the molar value.

Tests used:
MALME-3M = test: NCI In-Vitro Testing, Melanoma; type: cell-based
OVCAR-5 = test: NCI In-Vitro Testing, Ovarian Cancer; type: cell-based
Flk-1 kinase = Flk-1 kinase (Homo sapiens (Human), UniProt P35968); test: Flk-1 kinase inhibition; type: biochemical; conditions: Table 3
MDA-MB-231/ATCC = test: NCI In-Vitro Testing, Breast Cancer; type: cell-based
SF-295 = test: NCI In-Vitro Testing, CNS Cancer; type: cell-based
NCI-H226 = test: NCI In-Vitro Testing, Non-Small Cell Lung Cancer; type: cell-based
UACC-257 = test: NCI In-Vitro Testing, Melanoma; type: cell-based
HCT-116 = test: NCI In-Vitro Testing, Colon Cancer; type: cell-based
SN12C = test: NCI In-Vitro Testing, Renal Cancer; type: cell-based
EGFR kinase = EGFR kinase (Homo sapiens (Human), UniProt P00533); test: EGFR kinase inhibition; type: biochemical; conditions: Table 3; read-out: EGFR kinase
RXF 399 = test: NCI In-Vitro Testing, Renal Cancer; type: cell-based
HL-60(TB) = test: NCI In-Vitro Testing, Leukemia; type: cell-based
NCWADR-RES = test: NCI In-Vitro Testing, Breast Cancer; type: cell-based
NCI-H460 = test: NCI In-Vitro Testing, Non-Small Cell Lung Cancer; type: cell-based
MDA-MB-435 = test: NCI In-Vitro Testing, Breast Cancer; type: cell-based
LOXIMVI = test: NCI In-Vitro Testing, Melanoma; type: cell-based
TK-10 = test: NCI In-Vitro Testing, Renal Cancer; type: cell-based
MOLT-4 = test: NCI In-Vitro Testing, Leukemia; type: cell-based
EKVX = test: NCI In-Vitro Testing, Non-Small Cell Lung Cancer; type: cell-based

Chain of EGFR kinase (P00533 25-1210): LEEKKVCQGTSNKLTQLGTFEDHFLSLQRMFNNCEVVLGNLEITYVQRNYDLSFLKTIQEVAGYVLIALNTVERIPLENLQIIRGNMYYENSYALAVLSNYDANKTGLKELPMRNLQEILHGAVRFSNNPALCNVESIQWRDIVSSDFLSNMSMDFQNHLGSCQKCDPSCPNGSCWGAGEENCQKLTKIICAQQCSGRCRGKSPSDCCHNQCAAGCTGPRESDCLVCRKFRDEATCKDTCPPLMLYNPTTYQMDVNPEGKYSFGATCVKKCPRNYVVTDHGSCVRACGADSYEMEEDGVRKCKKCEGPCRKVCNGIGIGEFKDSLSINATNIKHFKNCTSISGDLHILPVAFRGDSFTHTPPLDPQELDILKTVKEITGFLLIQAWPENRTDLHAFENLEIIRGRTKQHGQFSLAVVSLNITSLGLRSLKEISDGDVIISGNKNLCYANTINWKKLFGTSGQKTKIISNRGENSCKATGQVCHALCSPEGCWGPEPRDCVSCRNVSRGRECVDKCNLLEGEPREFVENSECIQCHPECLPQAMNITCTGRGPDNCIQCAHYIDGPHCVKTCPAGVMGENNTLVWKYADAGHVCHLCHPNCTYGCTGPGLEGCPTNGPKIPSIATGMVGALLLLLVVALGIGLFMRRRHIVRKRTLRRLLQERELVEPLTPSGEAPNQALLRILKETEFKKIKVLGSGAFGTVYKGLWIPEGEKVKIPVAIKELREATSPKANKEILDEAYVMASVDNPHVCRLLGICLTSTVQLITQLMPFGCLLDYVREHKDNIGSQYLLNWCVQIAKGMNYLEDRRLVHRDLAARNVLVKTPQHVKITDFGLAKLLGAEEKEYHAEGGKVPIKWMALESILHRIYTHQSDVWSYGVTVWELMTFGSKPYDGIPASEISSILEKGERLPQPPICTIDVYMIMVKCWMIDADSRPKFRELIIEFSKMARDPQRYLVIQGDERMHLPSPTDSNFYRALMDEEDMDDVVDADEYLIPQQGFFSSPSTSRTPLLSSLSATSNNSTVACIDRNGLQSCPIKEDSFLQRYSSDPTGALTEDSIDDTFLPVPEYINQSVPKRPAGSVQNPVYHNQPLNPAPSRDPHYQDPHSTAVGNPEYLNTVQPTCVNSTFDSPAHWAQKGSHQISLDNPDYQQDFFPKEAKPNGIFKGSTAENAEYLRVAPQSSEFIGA
Chain of Flk-1 kinase (P35968 20-1356): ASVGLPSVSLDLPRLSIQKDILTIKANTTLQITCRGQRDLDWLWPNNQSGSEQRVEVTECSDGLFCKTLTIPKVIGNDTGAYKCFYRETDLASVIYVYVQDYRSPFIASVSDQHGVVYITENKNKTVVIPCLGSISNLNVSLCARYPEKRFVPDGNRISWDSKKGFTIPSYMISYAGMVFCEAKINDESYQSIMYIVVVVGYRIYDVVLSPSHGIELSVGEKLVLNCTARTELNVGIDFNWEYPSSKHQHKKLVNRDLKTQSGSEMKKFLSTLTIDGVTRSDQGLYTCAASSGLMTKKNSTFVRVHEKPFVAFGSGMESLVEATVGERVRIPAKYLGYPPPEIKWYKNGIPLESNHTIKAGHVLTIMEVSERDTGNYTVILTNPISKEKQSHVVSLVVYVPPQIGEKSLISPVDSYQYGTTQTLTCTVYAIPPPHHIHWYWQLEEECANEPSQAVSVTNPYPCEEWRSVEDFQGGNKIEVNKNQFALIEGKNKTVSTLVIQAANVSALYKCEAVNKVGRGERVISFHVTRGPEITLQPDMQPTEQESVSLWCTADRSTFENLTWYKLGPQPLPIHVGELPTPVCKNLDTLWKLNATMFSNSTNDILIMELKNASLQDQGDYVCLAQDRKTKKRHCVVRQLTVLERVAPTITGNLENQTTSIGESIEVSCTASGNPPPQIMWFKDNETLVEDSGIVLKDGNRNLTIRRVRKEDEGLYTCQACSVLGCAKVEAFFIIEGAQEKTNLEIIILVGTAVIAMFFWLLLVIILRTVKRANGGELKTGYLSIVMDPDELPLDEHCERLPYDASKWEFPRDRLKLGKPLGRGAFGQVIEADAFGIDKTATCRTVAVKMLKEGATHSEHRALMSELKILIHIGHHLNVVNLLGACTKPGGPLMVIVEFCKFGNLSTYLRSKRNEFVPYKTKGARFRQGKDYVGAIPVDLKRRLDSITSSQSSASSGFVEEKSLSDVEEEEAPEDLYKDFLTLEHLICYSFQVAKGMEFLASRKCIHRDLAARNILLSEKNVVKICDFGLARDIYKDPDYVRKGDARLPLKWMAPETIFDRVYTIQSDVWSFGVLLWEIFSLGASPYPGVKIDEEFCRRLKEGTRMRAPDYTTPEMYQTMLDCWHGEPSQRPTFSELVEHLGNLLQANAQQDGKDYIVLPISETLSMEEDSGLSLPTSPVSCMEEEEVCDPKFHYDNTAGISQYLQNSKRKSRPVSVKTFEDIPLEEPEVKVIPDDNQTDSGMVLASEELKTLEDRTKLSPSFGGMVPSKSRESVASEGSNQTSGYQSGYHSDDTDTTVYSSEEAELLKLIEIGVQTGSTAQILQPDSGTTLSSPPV

Compound: Nc1nc2c(c(Nc3ccc(Cl)cc3)n1)-c1ccccc1C2 [AAG145-136]
- GI50 (MALME-3M): >1.00E−4 Molar
- LC50 (MALME-3M): >1.00E−4 Molar
- TGI (MALME-3M): >1.00E−4 Molar
- Percent Growth (MALME-3M; Log10 Concentration −4.0 Molar): 78%
- Percent Growth (MALME-3M; Log10 Concentration −5.0 Molar): 64%
- Percent Growth (MALME-3M; Log10 Concentration −6.0 Molar): 106%
- Percent Growth (MALME-3M; Log10 Concentration −7.0 Molar): 97%
- Percent Growth (MALME-3M; Log10 Concentration −8.0 Molar): 96%
- LC50 (OVCAR-5): >1.00E−4 Molar
- TGI (OVCAR-5): >1.00E−4 Molar
- Percent Growth (OVCAR-5; Log10 Concentration −4.0 Molar): 58%
- Percent Growth (OVCAR-5; Log10 Concentration −5.0 Molar): 47%
- Percent Growth (OVCAR-5; Log10 Concentration −6.0 Molar): 56%
- Percent Growth (OVCAR-5; Log10 Concentration −7.0 Molar): 77%
- Percent Growth (OVCAR-5; Log10 Concentration −8.0 Molar): 96%
- pIC50 (Flk-1 kinase): < 3.70
- GI50 (MDA-MB-231/ATCC): 6.41E−7 Molar
- LC50 (MDA-MB-231/ATCC): >1.00E−4 Molar
- TGI (MDA-MB-231/ATCC): >1.00E−4 Molar
- Percent Growth (MDA-MB-231/ATCC; Log10 Concentration −4.0 Molar): 30%
- Percent Growth (MDA-MB-231/ATCC; Log10 Concentration −5.0 Molar): 29%
- Percent Growth (MDA-MB-231/ATCC; Log10 Concentration −6.0 Molar): 45%
- Percent Growth (MDA-MB-231/ATCC; Log10 Concentration −7.0 Molar): 70%
- Percent Growth (MDA-MB-231/ATCC; Log10 Concentration −8.0 Molar): 92%
- GI50 (SF-295): 5.47E−7 Molar
- LC50 (SF-295): >1.00E−4 Molar
- TGI (SF-295): >1.00E−4 Molar
- Percent Growth (SF-295; Log10 Concentration −4.0 Molar): 17%
- Percent Growth (SF-295; Log10 Concentration −5.0 Molar): 20%
- Percent Growth (SF-295; Log10 Concentration −6.0 Molar): 34%
- Percent Growth (SF-295; Log10 Concentration −7.0 Molar): 95%
- Percent Growth (SF-295; Log10 Concentration −8.0 Molar): 105%
- GI50 (NCI-H226): 2.14E−6 Molar
- LC50 (NCI-H226): >1.00E−4 Molar
- TGI (NCI-H226): >1.00E−4 Molar
- Percent Growth (NCI-H226; Log10 Concentration −4.0 Molar): 14%
- Percent Growth (NCI-H226; Log10 Concentration −5.0 Molar): 36%
- Percent Growth (NCI-H226; Log10 Concentration −6.0 Molar): 57%
- Percent Growth (NCI-H226; Log10 Concentration −7.0 Molar): 97%
- Percent Growth (NCI-H226; Log10 Concentration −8.0 Molar): 98%
- GI50 (UACC-257): 6.45E−8 Molar
- LC50 (UACC-257): >1.00E−4 Molar
- TGI (UACC-257): >1.00E−4 Molar
- Percent Growth (UACC-257; Log10 Concentration −4.0 Molar): 6%
- Percent Growth (UACC-257; Log10 Concentration −5.0 Molar): 21%
- Percent Growth (UACC-257; Log10 Concentration −6.0 Molar): 33%
- Percent Growth (UACC-257; Log10 Concentration −7.0 Molar): 46%
- Percent Growth (UACC-257; Log10 Concentration −8.0 Molar): 102%
- GI50 (HCT-116): 3.81E−8 Molar
- LC50 (HCT-116): >1.00E−4 Molar
- TGI (HCT-116): >1.00E−4 Molar
- Percent Growth (HCT-116; Log10 Concentration −4.0 Molar): 6%
- Percent Growth (HCT-116; Log10 Concentration −5.0 Molar): 13%
- Percent Growth (HCT-116; Log10 Concentration −6.0 Molar): 13%
- Percent Growth (HCT-116; Log10 Concentration −7.0 Molar): 23%
- Percent Growth (HCT-116; Log10 Concentration −8.0 Molar): 87%
- GI50 (SN12C): 1.89E−7 Molar
- LC50 (SN12C): >1.00E−4 Molar
- TGI (SN12C): >1.00E−4 Molar
- Percent Growth (SN12C; Log10 Concentration −4.0 Molar): 9%
- Percent Growth (SN12C; Log10 Concentration −5.0 Molar): 25%
- Percent Growth (SN12C; Log10 Concentration −6.0 Molar): 37%
- Percent Growth (SN12C; Log10 Concentration −7.0 Molar): 55%
- Percent Growth (SN12C; Log10 Concentration −8.0 Molar): 102%
- pIC50 (EGFR kinase): 4.59
- GI50 (RXF 399): 1.20E−5 Molar
- LC50 (RXF 399): >1.00E−4 Molar
- TGI (RXF 399): 6.26E−5 Molar
- Percent Growth (RXF 399; Log10 Concentration −4.0 Molar): −14%
- Percent Growth (RXF 399; Log10 Concentration −5.0 Molar): 56%
- Percent Growth (RXF 399; Log10 Concentration −6.0 Molar): 91%
- Percent Growth (RXF 399; Log10 Concentration −7.0 Molar): 107%
- Percent Growth (RXF 399; Log10 Concentration −8.0 Molar): 108%
- GI50 (HL-60(TB)): 1.50E−7 Molar
- LC50 (HL-60(TB)): >1.00E−4 Molar
- TGI (HL-60(TB)): >1.00E−4 Molar
- Percent Growth (HL-60(TB); Log10 Concentration −4.0 Molar): 12%
- Percent Growth (HL-60(TB); Log10 Concentration −5.0 Molar): 13%
- Percent Growth (HL-60(TB); Log10 Concentration −6.0 Molar): 23%
- Percent Growth (HL-60(TB); Log10 Concentration −7.0 Molar): 56%
- Percent Growth (HL-60(TB); Log10 Concentration −8.0 Molar): 87%
- GI50 (NCWADR-RES): 7.87E−7 Molar
- LC50 (NCWADR-RES): >1.00E−4 Molar
- TGI (NCWADR-RES): >1.00E−4 Molar
- Percent Growth (NCWADR-RES; Log10 Concentration −4.0 Molar): 24%
- Percent Growth (NCWADR-RES; Log10 Concentration −5.0 Molar): 29%
- Percent Growth (NCWADR-RES; Log10 Concentration −6.0 Molar): 44%
- Percent Growth (NCWADR-RES; Log10 Concentration −7.0 Molar): 100%
- Percent Growth (NCWADR-RES; Log10 Concentration −8.0 Molar): 100%
- GI50 (NCI-H460): 1.93E−8 Molar
- LC50 (NCI-H460): >1.00E−4 Molar
- TGI (NCI-H460): >1.00E−4 Molar
- Percent Growth (NCI-H460; Log10 Concentration −4.0 Molar): 3%
- Percent Growth (NCI-H460; Log10 Concentration −5.0 Molar): 3%
- Percent Growth (NCI-H460; Log10 Concentration −6.0 Molar): 15%
- Percent Growth (NCI-H460; Log10 Concentration −7.0 Molar): 23%
- Percent Growth (NCI-H460; Log10 Concentration −8.0 Molar): 61%
- GI50 (MDA-MB-435): 5.54E−7 Molar
- LC50 (MDA-MB-435): >1.00E−4 Molar
- TGI (MDA-MB-435): >1.00E−4 Molar
- Percent Growth (MDA-MB-435; Log10 Concentration −4.0 Molar): 33%
- Percent Growth (MDA-MB-435; Log10 Concentration −5.0 Molar): 20%
- Percent Growth (MDA-MB-435; Log10 Concentration −6.0 Molar): 31%
- Percent Growth (MDA-MB-435; Log10 Concentration −7.0 Molar): 104%
- Percent Growth (MDA-MB-435; Log10 Concentration −8.0 Molar): 104%
- GI50 (LOXIMVI): 3.08E−7 Molar
- LC50 (LOXIMVI): >1.00E−4 Molar
- TGI (LOXIMVI): >1.00E−4 Molar
- Percent Growth (LOXIMVI; Log10 Concentration −4.0 Molar): 15%
- Percent Growth (LOXIMVI; Log10 Concentration −5.0 Molar): 11%
- Percent Growth (LOXIMVI; Log10 Concentration −6.0 Molar): 16%
- Percent Growth (LOXIMVI; Log10 Concentration −7.0 Molar): 52%
- Percent Growth (LOXIMVI; Log10 Concentration −8.0 Molar): 106%
- GI50 (TK-10): 2.15E−6 Molar
- LC50 (TK-10): >1.00E−4 Molar
- TGI (TK-10): >1.00E−4 Molar
- Percent Growth (TK-10; Log10 Concentration −4.0 Molar): 27%
- Percent Growth (TK-10; Log10 Concentration −5.0 Molar): 34%
- Percent Growth (TK-10; Log10 Concentration −6.0 Molar): 58%
- Percent Growth (TK-10; Log10 Concentration −7.0 Molar): 113%
- Percent Growth (TK-10; Log10 Concentration −8.0 Molar): 110%
- GI50 (MOLT-4): 6.61E−8 Molar
- LC50 (MOLT-4): >1.00E−4 Molar
- TGI (MOLT-4): >1.00E−4 Molar
- Percent Growth (MOLT-4; Log10 Concentration −4.0 Molar): 21%
- Percent Growth (MOLT-4; Log10 Concentration −5.0 Molar): 11%
- Percent Growth (MOLT-4; Log10 Concentration −6.0 Molar): 14%
- Percent Growth (MOLT-4; Log10 Concentration −7.0 Molar): 39%
- Percent Growth (MOLT-4; Log10 Concentration −8.0 Molar): 99%
- GI50 (EKVX): 2.71E−8 Molar
- LC50 (EKVX): >1.00E−4 Molar
- TGI (EKVX): >1.00E−4 Molar
- Percent Growth (EKVX; Log10 Concentration −4.0 Molar): 4%
- Percent Growth (EKVX; Log10 Concentration −5.0 Molar): 26%
- Percent Growth (EKVX; Log10 Concentration −6.0 Molar): 68%
- Percent Growth (EKVX; Log10 Concentration −7.0 Molar): 68%
- Percent Growth (EKVX; Log10 Concentration −8.0 Molar): 101%
